Measurements from patent publication US9458414B2, “Cleaning, surfactant, and personal care compositions” (SEGETIS, INC., priority 2012, dated 2016).

What was measured:
Type in all cases: physicochemical
[1] = Coupling of water and octanoic acid by hydrotropes (amount producing a single phase)
Description: Hydrotropes were added to a two-component mixture of octanoic acid and deionized (DI) water to find the amount that produced a single phase from the two separate phases of water and octanoic acid.
The percent hydrotrope required to compatibilize phases (and the resulting percent octanoic acid) were calculated and the results are shown in Table 4 as well as FIG. 1.

[2] = Coupling of water and soy methyl ester by hydrotropes
Description: Hydrotropes were added to a two-component mixture of soy methyl ester and DI water to find the amount that produced a single phase from the two separate phases of water and soy methyl ester. The percent hydrotrope required to compatibilize the phases was calculated.

[3] = Coupling of water and castor oil by hydrotropes
[4] = ratio of water:octanoic acid 10:90
[5] = ratio of water:octanoic acid 30:70
[6] = ratio of water:octanoic acid 50:50
[7] = ratio of water:octanoic acid 70:30
[8] = ratio of water:octanoic acid 90:10
[9] = water:octanoic acid 10:90 (DI water 0.5 g, octanoic acid 4.5 g)
[10] = water:octanoic acid 30:70 (DI water 1.5 g, octanoic acid 3.5 g)
[11] = water:octanoic acid 50:50 (DI water 5.0 g, octanoic acid 5.0 g)
[12] = water:octanoic acid 70:30 (DI water 3.5 g, octanoic acid 1.5 g)
[13] = water:octanoic acid 90:10 (DI water 4.5 g, octanoic acid 0.5 g)
[14] = ratio of water:soy methyl esters 10:90
[15] = ratio of water:soy methyl esters 30:70
[16] = ratio of water:soy methyl esters 50:50
[17] = ratio of water:soy methyl esters 70:30
[18] = ratio of water:soy methyl esters 90:10
[19] = ratio of water to castor oil 10:90
[20] = ratio of water to castor oil 30:70
[21] = ratio of water to castor oil 50:50
[22] = ratio of water to castor oil 70:30
[23] = ratio of water to castor oil 90:10
[24] = all ratios 10:90 to 90:10, measured levels up to >95%

Wt % Hydrotrope required to compatibilize phases [1, 4] [%] | Wt % Octanoic Acid (resulting, at compatibilization) [1, 4] [%] | Wt % Hydrotrope required to compatibilize phases [1, 5] [%] | Wt % Octanoic Acid (resulting, at compatibilization) [1, 5] [%] | Wt % Hydrotrope required to compatibilize phases [1, 6] [%] | Wt % Octanoic Acid (resulting, at compatibilization) [1, 6] [%] | Wt % Hydrotrope required to compatibilize phases [1, 7] [%] | Wt % Octanoic Acid (resulting, at compatibilization) [1, 7] [%] | Wt % Hydrotrope required to compatibilize phases [1, 8] [%] | Wt % Octanoic Acid (resulting, at compatibilization) [1, 8] [%] | Amount of hydrotrope that produced a single phase [1, 9] [grams] | Amount of hydrotrope that produced a single phase [1, 10] [grams] | Amount of hydrotrope that produced a single phase [1, 11] [grams] | Amount of hydrotrope that produced a single phase [1, 12] [grams] | Amount of hydrotrope that produced a single phase [1, 13] [grams] | Wt % Hydrotrope required to compatibilize the phases [2, 14] [%] | Wt % Soy Methyl Esters (at compatibilization) [2, 14] [%] | Wt % Hydrotrope required to compatibilize the phases [2, 15] [%] | Wt % Soy Methyl Esters (at compatibilization) [2, 15] [%] | Wt % Hydrotrope required to compatibilize the phases [2, 16] [%] | Molecule | other results
30 | 63 | 47 | 37 | 51 | 25 | 48 | 16 | 43 | 6 | 2.14 | 4.52 | 10.34 | 4.66 | 3.7 | 48 | 47 | 63 | 28 | 74 | COC(C)COC(C)CO (centres unmarked) [DPM, dipropylene glycol methyl ether] | Wt % Soy Methyl Esters (at compatibilization) [2, 16]: 13%; Wt % Hydrotrope required to compatibilize the phases [2, 17]: 78%; Wt % Soy Methyl Esters (at compatibilization) [2, 17]: 5%; Wt % Hydrotrope required to compatibilize the phases [2, 18]: 78%; Wt % Soy Methyl Esters (at compatibilization) [2, 18]: 2%; Wt % Castor oil (at compatibilization) [3, 19]: 40%; Wt % Hydrotrope required to compatibilize phases [3, 19]: 56%; Wt % Castor oil (at compatibilization) [3, 20]: 26%; Wt % Hydrotrope required to compatibilize phases [3, 20]: 65%; Wt % Castor oil (at compatibilization) [3, 21]: 13%; Wt % Hydrotrope required to compatibilize phases [3, 21]: 74%; Wt % Castor oil (at compatibilization) [3, 22]: 5%; Wt % Hydrotrope required to compatibilize phases [3, 22]: 79%; Wt % Castor oil (at compatibilization) [3, 23]: 2%; Wt % Hydrotrope required to compatibilize phases [3, 23]: 81%
18 | 74 | 38 | 43 | 42 | 29 | 42 | 17 | 41 | 6 | 1.09 | 3.12 | 3.62 | 3.68 | 3.44 | 51 | 44 | 67 | 25 | 77 | COCC(C)O (centres unmarked) [PM, propylene glycol methyl ether] | Wt % Soy Methyl Esters (at compatibilization) [2, 16]: 11%; Wt % Hydrotrope required to compatibilize the phases [2, 17]: 81%; Wt % Soy Methyl Esters (at compatibilization) [2, 17]: 5%; Wt % Hydrotrope required to compatibilize the phases [2, 18]: 77%; Wt % Soy Methyl Esters (at compatibilization) [2, 18]: 2%; Wt % Castor oil (at compatibilization) [3, 19]: 36%; Wt % Hydrotrope required to compatibilize phases [3, 19]: 61%; Wt % Castor oil (at compatibilization) [3, 20]: 26%; Wt % Hydrotrope required to compatibilize phases [3, 20]: 65%; Wt % Castor oil (at compatibilization) [3, 21]: 12%; Wt % Hydrotrope required to compatibilize phases [3, 21]: 76%; Wt % Castor oil (at compatibilization) [3, 22]: 5%; Wt % Hydrotrope required to compatibilize phases [3, 22]: 81%; Wt % Castor oil (at compatibilization) [3, 23]: 2%; Wt % Hydrotrope required to compatibilize phases [3, 23]: 83%
18 | 74 | 37 | 44 | 39 | 31 | 37 | 19 | 36 | 6 | 1.12 | 2.95 | 3.14 | 2.97 | 2.87 | 54 | 41 | 74 | 18 | 78 | CCO [ethanol] | Wt % Soy Methyl Esters (at compatibilization) [2, 16]: 11%; Wt % Hydrotrope required to compatibilize the phases [2, 17]: 80%; Wt % Soy Methyl Esters (at compatibilization) [2, 17]: 6%; Wt % Hydrotrope required to compatibilize the phases [2, 18]: 77%; Wt % Soy Methyl Esters (at compatibilization) [2, 18]: 2%; Wt % Castor oil (at compatibilization) [3, 19]: 40%; Wt % Hydrotrope required to compatibilize phases [3, 19]: 55%; Wt % Castor oil (at compatibilization) [3, 20]: 22%; Wt % Hydrotrope required to compatibilize phases [3, 20]: 69%; Wt % Castor oil (at compatibilization) [3, 21]: 10%; Wt % Hydrotrope required to compatibilize phases [3, 21]: 79%; Wt % Castor oil (at compatibilization) [3, 22]: 5%; Wt % Hydrotrope required to compatibilize phases [3, 22]: 82%; Wt % Castor oil (at compatibilization) [3, 23]: 2%; Wt % Hydrotrope required to compatibilize phases [3, 23]: 84%

Molecule | Wt % Hydrotrope required to compatibilize phases [1, 4] [%] | Wt % Octanoic Acid (resulting, at compatibilization) [1, 4] [%] | Wt % Hydrotrope required to compatibilize phases [1, 5] [%] | Wt % Octanoic Acid (resulting, at compatibilization) [1, 5] [%] | Wt % Hydrotrope required to compatibilize phases [1, 6] [%] | Wt % Octanoic Acid (resulting, at compatibilization) [1, 6] [%] | Wt % Hydrotrope required to compatibilize phases [1, 7] [%] | Wt % Octanoic Acid (resulting, at compatibilization) [1, 7] [%] | Wt % Hydrotrope required to compatibilize phases [1, 8] [%] | Wt % Octanoic Acid (resulting, at compatibilization) [1, 8] [%] | Amount of hydrotrope that produced a single phase [1, 9] [grams] | Amount of hydrotrope that produced a single phase [1, 10] [grams] | Amount of hydrotrope that produced a single phase [1, 11] [grams] | Amount of hydrotrope that produced a single phase [1, 12] [grams] | Amount of hydrotrope that produced a single phase [1, 13] [grams] | Wt % Hydrotrope required to compatibilize the phases [2, 14] [%] | Wt % Soy Methyl Esters (at compatibilization) [2, 14] [%] | Wt % Hydrotrope required to compatibilize the phases [2, 15] [%] | Wt % Soy Methyl Esters (at compatibilization) [2, 15] [%] | Wt % Hydrotrope required to compatibilize the phases [2, 16] [%] | other results
Sodium xylene-sulfonate [Sodium xylene-sulfonate (SXS) (40%)] | 13 | 61 | 16 | 43 | 17 | 29 | 17 | 18 | 16 | 6 | 2.32 | 3.23 | 7.4 | 3.55 | 3.33 |  |  |  |  |  | Compatibilization of water and soy methyl esters [2, 24]: *The sodium xylenesulfonate did not compatibilize at any measured level (up to >95%).; Compatibilization of water and castor oil [3, 24]: *The sodium xylenesulfonate did not compatibilize at any measured level (up to >95%).
